{"source": "patent US7229757B2", "about": "“Compounds displayed on icosahedral phage and methods of using same” (Xenoport, Inc., priority 2001, dated 2007)", "target": "T1, human folate receptor (Homo sapiens, UniProt P15328)", "T1 construct": "KB cells, which express high levels of the human folate receptor; endogenous in cells; host or cells: KB cells", "T1 sequence (P15328 25-234)": "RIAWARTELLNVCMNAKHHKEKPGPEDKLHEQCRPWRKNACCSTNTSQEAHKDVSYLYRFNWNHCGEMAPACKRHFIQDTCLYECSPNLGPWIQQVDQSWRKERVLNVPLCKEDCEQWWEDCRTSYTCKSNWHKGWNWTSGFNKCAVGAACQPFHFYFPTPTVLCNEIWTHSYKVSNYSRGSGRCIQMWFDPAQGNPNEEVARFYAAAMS", "test": "screening of the 36-member folate analog library on T7 phage for uptake into KB cells", "type": "cell-based", "conditions": "compound displayed on T7 phage", "method": "KB cells were grown adherently in folate-free RPMI with 5% fetal bovine serum in a T75 flask. Prior to screening the compound library the media was removed and replaced with folate-free RPMI containing 0.1% BSA. An aliquot of the folate-analog phage library (˜10^9 pfu) was added to the flask containing 10^7 KB cells and incubated for 2 h at 37° C. Following the incubation period, the cells were detached from the flask by adding PBS containing 5 mM EDTA and incubating for 5 minutes at 37° C. The cell suspension was transferred to a tube and cells were pelleted by centrifugation. The cells were washed 3× with PBS followed by a single wash with “stripping” buffer (50 mM glycine, pH 2.8, 500 mM NaCl, 2M urea, 2% polyvinylpyrolidone) to remove phage particles that were both specifically and non-specifically bound to the surface of the cells. The cell suspension was neutralized by the addition of one half volume of 1 M Tris and centrifuged to pellet the cells. Cells were then lysed with PBS containing 1% SDS to recover phage that were endocytosed. To determine the number of recovered phage particles the lysate was titered by preparing a series of dilutions, infecting BL21 cells and plating on LB agar plates. The plates were incubated for 2-3 h at 37° C. until plaques were clearly visible. […]", "data": [{"compound": "NNC(=O)COCCOCCNC(=O)CCC(NC(=O)c1ccc(NCc2cnc3nc(N)nc(O)c3n2)cc1)C(=O)O", "note": "(centres unmarked) [folate-hydrazide, Folate-hydrazide]", "values": [{"measurement": "share of sequenced random clones from the lysate carrying the clone's DNA tag", "setting": "21 sequences", "value": 38, "unit": "%"}, {"measurement": "enrichment of phage clone in the population recovered from the cell lysate (hybridization to library archive array)", "setting": "2 h at 37° C.", "value": "the only one enriched"}]}]}
